Assay results from patent US6172056A, “Pharmaceutical compositions and method for prophylaxis and therapy of radical-mediated cell damage” (Jenapharm GmbH & Co. KG, priority 1993, dated 2001).

How the values were obtained:
[1] = tested on: lipid peroxidation (synaptosomal membrane fraction, Fenton's reagent); assay: In vitro inhibition of lipid peroxidation, thiobarbituric acid test; type: biochemical; details: 30 min at 37° C.
[2] = tested on: peroxidation; details: literature statement; cited from earlier work
[3] = tested on: LDL, isolated from human whole blood; assay: In vitro inhibition of LDL oxidation (Esterbauer et al), CuSO4-induced; details: 5 μmol test compound, 10 μmol CuSO4
[4] = biological target: T1, estrogen receptor (Oryctolagus cuniculus, UniProt G1SML6); assay: Estrogen receptor binding, competitive with 3H-ethinyl estradiol in uterine cytosol; details: RBA relative to 17β-estradiol, infantile rabbit uterine cytosol, 0° C.
T1 construct: in uterine cytosol of the infantile rabbit; from tissue; host or cells: uterine cytosol of infantile rabbit
T1 sequence (G1SML6 1-598): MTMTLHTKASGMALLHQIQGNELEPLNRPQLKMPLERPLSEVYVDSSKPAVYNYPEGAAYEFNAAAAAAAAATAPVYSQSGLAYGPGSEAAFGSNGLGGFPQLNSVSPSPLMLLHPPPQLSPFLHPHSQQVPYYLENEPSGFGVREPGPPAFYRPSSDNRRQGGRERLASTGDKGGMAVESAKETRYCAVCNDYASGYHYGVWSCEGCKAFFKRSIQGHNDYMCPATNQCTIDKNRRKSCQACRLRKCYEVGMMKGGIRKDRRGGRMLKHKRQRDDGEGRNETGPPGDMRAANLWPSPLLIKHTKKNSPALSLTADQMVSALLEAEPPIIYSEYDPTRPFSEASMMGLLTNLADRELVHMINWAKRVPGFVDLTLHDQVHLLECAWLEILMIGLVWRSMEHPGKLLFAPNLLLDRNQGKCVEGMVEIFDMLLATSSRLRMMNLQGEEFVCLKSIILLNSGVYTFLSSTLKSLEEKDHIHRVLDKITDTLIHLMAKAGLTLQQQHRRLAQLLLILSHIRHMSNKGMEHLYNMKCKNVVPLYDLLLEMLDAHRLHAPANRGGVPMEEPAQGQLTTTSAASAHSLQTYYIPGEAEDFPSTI
Protocol: Statements about estrogen affinity are made by measuring the estrogen receptor binding.
Measuring the estrogen receptor binding is done by competitive binding of the ^3 H-labelled synthetic estrogen ethinyl estradiol and of the compounds to be tested in uterine cytosol of the infantile rabbit at 0° C. Reaction equilibrium and receptor saturation are the goal.
With the statement about the RBA values, the estrogen receptor affinity of the particular compound is characterized; taking into account certain prerequisites for in vitro investigations (such as a free 30H group), it is a measure for estrogen affinity (again, see Table 1).

Row | Compound | IC50 [1] [µM] | Inhibition of peroxidation in vitro and in vivo [2] | LDL oxidation inhibition (prolongation of the lag phase in min) [3] [min] | Relative binding affinity to estrogen receptor [4] [%]
1 | COc1cc2c(cc1O)[C@H]1CC[C@]3(C)[C@@H](O)CC[C@H]3[C@@H]1CC2 [2-Hydroxyestradiol-3-methyl ether] | 3.2 |  |  | 
2 | C[C@]12CC[C@@H]3c4cc(O)c(O)cc4CC[C@H]3[C@@H]1CC[C@@H]2O [2-hydroxyestradiol] |  | inhibit peroxidation in vitro and in vivo |  | 
3 | C[C@]12CC=C3c4ccc(O)cc4CC[C@H]3[C@@H]1CC[C@@]21CO1 [3-Hydroxy-1,3,5(10),9(11)-estratetraene-17S-spirooxirane] | 0.81 |  | 210 | 
4 | C[C@]12CC[C@@H]3c4ccc(O)cc4CC[C@H]3[C@@H]1CC[C@@]21CO1 [3-Hydroxy-1,3,5(10)-estratriene-17S-spirooxirane] | 4.11 |  | 170 | 
5 | C[C@]12CCc3c(ccc4cc(O)ccc34)[C@@H]1CC[C@H]2O [6,8-Didehydro-17α-estradiol] | 5.1 |  |  | 
6 | C[C@]12CC[C@@H]3c4ccc(O)cc4C=C[C@H]3[C@@H]1C[C@@H](O)[C@@H]2O [6-Dehydroestriol] | 45.6 |  |  | 7.9
7 | C[C@]12CCC3=C(CCc4cc(O)ccc43)[C@@H]1CC[C@H]2O [8-Dehydro-17α-estradiol] | 4.1 |  |  | 
8 | C[C@]12CCC3=C(CCc4cc(O)ccc43)[C@@H]1CC[C@@H]2O [8-Dehydroestradiol] | 1 |  | 120 | 59.6
9 | C[C@]12CC=C3c4ccc(O)cc4CC[C@H]3[C@@H]1C[C@@H](O)[C@@H]2O [9(11)-dehydroestriol] | 10.6 |  |  | 7.5
10 | C[C@]12CC[C@@H]3c4ccc(O)cc4CC[C@H]3[C@@]13C[C@H]3C[C@@H]2O [14α,15α-Methylene estradiol] | 5 to 10 |  |  | 
11 | C[C@]12CCC3=C(CCc4cc(O)ccc43)[C@@]13C[C@H]3C[C@@H]2O [14α,15α-Methylene-8-dehydroestradiol] | 0.9 |  |  | 
12 | C[C@]12CCC3=C(CCc4cc(O)ccc43)[C@]13C[C@@H]3C[C@@H]2O [14β,15β-Methylene-8 dehydroestradiol, 14β,15β-methylene-8-dehydroestradiol] | 1.9 |  |  | 
13 | C[C@]12CC[C@@H]3c4ccc(O)cc4CC[C@H]3[C@@H]1CC[C@H]2O [17α-Estradiol] | 8.9 |  |  | 
14 | C[C@]12CC[C@@H]3c4ccc(O)cc4CC[C@H]3[C@@H]1CC[C@@H]2O [17β-Estradiol, reference compound] | 12.4 | inhibit peroxidation in vitro and in vivo | 110 | 
15 | CC(CO)[C@H]1CC[C@H]2[C@@H]3CCc4cc(O)ccc4[C@H]3CC[C@]12C (stereo partly shown) [20-hydroxymethyl-3-hydroxy-19-norpregna-1,3,5(10)-triene] | 14.4 |  |  | 22.5
16 | Cc1c(C)c2c(c(C)c1O)CCC(C)(CN1CCN(c3cc(N4CCCC4)nc(N4CCCC4)n3)CC1)O2 (stereo not shown) [Compound U-78517F, reference compound] | 1.8 |  | 70 | 
17 | C[C@]12CC[C@@H]3c4ccc(O)cc4CC[C@H]3[C@@H]1C[C@@H](O)[C@@H]2O [Estriol, reference compound] | 122 | inhibit peroxidation in vitro and in vivo | 45 | 10.3
18 | C[C@@]12CC[C@H]3c4ccc(O)cc4CC[C@@H]3[C@H]1CC[C@H]2O [ent-Estradiol] | 8.8 |  | 120 | 
19 | C[C@]12CC[C@@H]3c4ccc(O)cc4CC[C@H]3[C@@H]1CCC2=O [estrone] |  | inhibit peroxidation in vitro and in vivo |  | 
20 | Vitamin E [reference compound] | 132 |  |  | 
